Structures are written as SMILES.

One assay deals with T1, JAK2 (Homo sapiens, UniProt O60674).
T1 construct: host or cells: baculovirus expression system
Kind of assay: Recombinant Human JAK2 Kinase Assay (TRF). In kind it is biochemical. As to conditions: JAK2 kinase inhibition, 0.2 μM ATP; read-out: JAK2 Potency. Put shortly: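 TRF read-out: Eu-N1 PY100 anti-phosphotyrosine antibody detects product. Enzyme is baculovirus-expressed JAK2 at 15 ng/ml; substrate is a biotinyl 15-mer peptide bound to Neutravidin-coated wells. Buffer 20 mM HEPES pH 7.2, 0.2 μM ATP, 1 mM MnCl2, 0.1% BSA, 2.5% DMSO final; 20 min, RT.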

Another assay addresses T2, ALK (Homo sapiens, UniProt Q9UM73).
T2 construct: host or cells: baculovirus expression system
Kind of assay: ALK Kinase Assay (ELISA/TRF, PLC-γ substrate). In kind it is biochemical. To be noted: ALK kinase inhibition, 1 μM ATP; read-out: ALK Potency. The method in brief:
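Time-resolved fluorescence ELISA using Eu-N1 PT66 antibody to detect phosphorylated PLC-γ (coated at 10 μg/mL). Enzyme at 30 ng/ml ALK; 15 min incubation, 37° C.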
Background: ELISA stands for enzyme-linked immunosorbent assay.

T1 sequence (O60674 whole entry): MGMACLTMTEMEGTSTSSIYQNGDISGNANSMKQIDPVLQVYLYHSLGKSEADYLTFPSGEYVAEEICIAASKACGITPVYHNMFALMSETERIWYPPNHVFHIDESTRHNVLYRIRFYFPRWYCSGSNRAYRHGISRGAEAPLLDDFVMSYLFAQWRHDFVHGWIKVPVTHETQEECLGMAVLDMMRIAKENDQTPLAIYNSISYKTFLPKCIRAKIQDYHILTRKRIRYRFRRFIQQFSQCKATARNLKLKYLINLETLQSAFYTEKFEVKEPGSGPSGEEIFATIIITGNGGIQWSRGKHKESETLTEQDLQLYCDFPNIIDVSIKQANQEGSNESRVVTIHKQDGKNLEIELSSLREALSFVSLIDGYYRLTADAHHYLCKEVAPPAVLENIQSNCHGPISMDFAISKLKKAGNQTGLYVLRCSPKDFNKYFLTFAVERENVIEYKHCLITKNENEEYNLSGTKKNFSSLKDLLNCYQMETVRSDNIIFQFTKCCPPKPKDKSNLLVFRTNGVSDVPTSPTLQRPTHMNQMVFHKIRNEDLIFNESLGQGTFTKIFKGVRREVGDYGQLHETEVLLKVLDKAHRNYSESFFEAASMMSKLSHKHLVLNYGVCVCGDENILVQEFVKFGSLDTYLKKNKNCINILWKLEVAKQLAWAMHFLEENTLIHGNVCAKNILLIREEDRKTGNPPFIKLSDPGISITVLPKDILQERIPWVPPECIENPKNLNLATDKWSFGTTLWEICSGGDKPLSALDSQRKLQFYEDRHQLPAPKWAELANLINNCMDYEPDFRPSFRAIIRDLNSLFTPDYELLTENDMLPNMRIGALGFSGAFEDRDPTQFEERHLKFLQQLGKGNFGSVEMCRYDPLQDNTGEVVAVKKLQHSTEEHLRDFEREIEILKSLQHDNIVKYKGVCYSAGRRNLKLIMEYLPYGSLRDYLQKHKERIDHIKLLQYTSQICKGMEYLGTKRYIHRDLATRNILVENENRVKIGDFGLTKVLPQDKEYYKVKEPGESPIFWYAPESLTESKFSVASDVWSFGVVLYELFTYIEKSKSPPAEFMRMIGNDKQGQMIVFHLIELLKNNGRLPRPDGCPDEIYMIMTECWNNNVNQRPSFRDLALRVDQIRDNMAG
T2 sequence (Q9UM73 19-1620): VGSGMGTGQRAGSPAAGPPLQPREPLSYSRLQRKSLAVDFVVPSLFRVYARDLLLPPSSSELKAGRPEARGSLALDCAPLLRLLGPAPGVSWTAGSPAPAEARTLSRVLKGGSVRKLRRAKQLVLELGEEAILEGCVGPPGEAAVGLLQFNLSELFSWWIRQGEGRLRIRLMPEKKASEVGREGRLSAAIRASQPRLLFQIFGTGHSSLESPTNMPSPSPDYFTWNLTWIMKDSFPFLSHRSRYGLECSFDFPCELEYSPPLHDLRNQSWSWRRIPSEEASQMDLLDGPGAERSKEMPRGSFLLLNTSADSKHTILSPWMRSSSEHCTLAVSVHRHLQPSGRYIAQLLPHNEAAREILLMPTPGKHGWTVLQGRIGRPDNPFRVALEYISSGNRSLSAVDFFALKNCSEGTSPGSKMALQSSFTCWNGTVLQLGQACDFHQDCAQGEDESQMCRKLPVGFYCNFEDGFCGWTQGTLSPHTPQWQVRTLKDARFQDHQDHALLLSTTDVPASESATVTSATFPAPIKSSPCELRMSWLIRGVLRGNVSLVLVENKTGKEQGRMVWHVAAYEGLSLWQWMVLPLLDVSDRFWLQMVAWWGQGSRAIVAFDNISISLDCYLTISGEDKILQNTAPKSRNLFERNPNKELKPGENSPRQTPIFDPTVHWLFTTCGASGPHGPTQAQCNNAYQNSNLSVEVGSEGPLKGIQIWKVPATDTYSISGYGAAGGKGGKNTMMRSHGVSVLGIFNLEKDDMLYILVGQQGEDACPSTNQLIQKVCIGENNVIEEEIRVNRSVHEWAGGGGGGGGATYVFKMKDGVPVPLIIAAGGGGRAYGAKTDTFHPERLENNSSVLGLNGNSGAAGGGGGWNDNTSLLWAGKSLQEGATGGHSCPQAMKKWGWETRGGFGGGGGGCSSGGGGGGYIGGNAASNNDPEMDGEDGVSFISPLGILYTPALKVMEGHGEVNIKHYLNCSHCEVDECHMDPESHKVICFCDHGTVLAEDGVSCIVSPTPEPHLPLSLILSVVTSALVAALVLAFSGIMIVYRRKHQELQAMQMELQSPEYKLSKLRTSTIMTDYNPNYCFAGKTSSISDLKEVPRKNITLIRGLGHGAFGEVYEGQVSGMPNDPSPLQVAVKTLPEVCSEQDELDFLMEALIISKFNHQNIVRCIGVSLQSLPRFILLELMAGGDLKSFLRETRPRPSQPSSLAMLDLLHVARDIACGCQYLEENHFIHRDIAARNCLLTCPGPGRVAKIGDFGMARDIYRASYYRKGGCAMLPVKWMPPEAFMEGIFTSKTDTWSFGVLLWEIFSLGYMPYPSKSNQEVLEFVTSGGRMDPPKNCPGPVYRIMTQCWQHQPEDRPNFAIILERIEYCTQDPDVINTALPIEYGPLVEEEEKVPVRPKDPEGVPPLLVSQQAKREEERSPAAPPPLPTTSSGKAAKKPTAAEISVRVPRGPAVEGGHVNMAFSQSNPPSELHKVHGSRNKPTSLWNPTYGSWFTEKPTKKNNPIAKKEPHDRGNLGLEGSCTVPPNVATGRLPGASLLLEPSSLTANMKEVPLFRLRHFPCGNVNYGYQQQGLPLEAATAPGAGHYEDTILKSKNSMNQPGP

As for `Cn1cnc(-c2ccc3cnc(Nc4ccc(N5CCOCC5)cc4)nn23)c1` [Example 1045, [7-(1-Methyl-1H-imidazol-4-yl)-pyrrolo[2,1-f][1,2,4]triazin-2-yl]-(4-morpholin-4-yl-phenyl)-amine], the figures for the IC50 at JAK2 and at ALK were below 100 nM and 1000 to 10000 nM, respectively.

Regarding `Cc1cc(-c2ccc3cnc(Nc4ccc(N5CCN(C)CC5)cc4)nn23)cnc1F` [Example 1046, [7-(6-Fluoro-5-methyl-pyridin-3-yl)-pyrrolo[2,1-f][1,2,4]triazin-2-yl]-[4-(4-methyl-piperazin-1-yl)-phenyl]-amine], the values for the IC50 on JAK2 and on ALK were below 100 nM and 100 to 1000 nM, respectively.

With `Cc1cc(-c2ccc3cnc(Nc4ccc(N5CCOCC5)cc4)nn23)cnc1F` [Example 1047, [7-(6-Fluoro-5-methyl-pyridin-3-yl)-pyrrolo[2,1-f][1,2,4]triazin-2-yl]-(4-morpholin-4-yl-phenyl)-amine], the values for the IC50 on JAK2 and on ALK were below 100 nM and 1000 to 10000 nM, respectively.

Take `CN1CCN(c2ccc(Nc3ncc4ccc(-c5cccc(CN(C)S(C)(=O)=O)c5)n4n3)cc2)CC1` [Example 1048, N-Methyl-N-(3-{2-[4-(4-methyl-piperazin-1-yl)-phenylamino]-pyrrolo[2,1-f][1,2,4]triazin-7-yl}-benzyl)-methanesulfonamide]: the results for the IC50 at JAK2 and at ALK were below 100 nM and 100 to 1000 nM, respectively.

Regarding `CS(=O)(=O)c1cccc(-c2ccc3cnc(Nc4ccc(CN5CCS(=O)(=O)CC5)cc4)nn23)c1` [Example 1049, [4-(1,1-Dioxo-1$1(6)-thiomorpholin-4-ylmethyl)-phenyl]-[7-(3-methanesulfonyl-phenyl)-pyrrolo[2,1-f][1,2,4]triazin-2-yl]-amine], the IC50 at JAK2 is below 100 nM; on ALK, 1000 to 10000 nM.

With `O=S1(=O)CCN(Cc2ccc(Nc3ncc4ccc(-c5cccnc5)n4n3)cc2)CC1` [Example 1050, [4-(1,1-Dioxo-1$1(6)-thiomorpholin-4-ylmethyl)-phenyl]-(7-pyridin-3-yl-pyrrolo[2,1-f][1,2,4]triazin-2-yl)-amine], the IC50 was below 100 nM at JAK2 and 1000 to 10000 nM at ALK.

In the case of `COc1ccc(-c2ccc3cnc(Nc4ccc(CN5CCS(=O)(=O)CC5)cc4)nn23)cn1` [Example 1051, [4-(1,1-Dioxo-1$1(6)-thiomorpholin-4-ylmethyl)-phenyl]-[7-(6-methoxy-pyridin-3-yl)-pyrrolo[2,1-f][1,2,4]triazin-2-yl]-amine], the IC50 at JAK2 was below 100 nM; on ALK, above 10000 nM.

With `CS(=O)(=O)Nc1cccc(-c2ccc3cnc(Nc4ccc(CN5CCS(=O)(=O)CC5)cc4)nn23)c1` [Example 1052, N-(3-{2-[4-(1,1-Dioxo-1 $1(6)-thiomorpholin-4-ylmethyl)-phenylamino]-pyrrolo[2,1-f][1,2,4]triazin-7-yl}-phenyl)-methanesulfonamide], the IC50 on JAK2 was below 100 nM; on ALK, 100 to 1000 nM.

For the compound `CC(=O)Nc1cccc(Nc2ncc3ccc(-c4cccc(CN(C)S(C)(=O)=O)c4)n3n2)c1` [Example 1053, N-[3-(7-{3-[(Methanesulfonyl-methyl-amino)-methyl]-phenyl}-pyrrolo[2,1-f][1,2,4]triazin-2-ylamino)-phenyl]-acetamide], the IC50 on JAK2 was below 100 nM; at ALK it was 1000 to 10000 nM.

Consider `CN(Cc1cccc(-c2ccc3cnc(Nc4ccc5c(c4)NC(=O)C5(C)C)nn23)c1)S(C)(=O)=O` [Example 1054, N-{3-[2-(3,3-Dimethyl-2-oxo-2,3-dihydro-1H-indol-6-ylamino)-pyrrolo[2,1-f][1,2,4]triazin-7-yl]-benzyl}-N-methyl-methanesulfonamide], for which the values for the IC50 on JAK2 and at ALK were below 100 nM and above 10000 nM, respectively.

Regarding `CC(C)(C)NS(=O)(=O)c1cccc(-c2ccc3cnc(Nc4ccc(C5CCN(CC(N)=O)CC5)cc4)nn23)c1` [Example 1055, 2-(4-{4-[7-(3-tert-Butylsulfamoyl-phenyl)-pyrrolo[2,1-f][1,2,4]triazin-2-ylamino]-phenyl}-piperidin-1-yl)-acetamide], the values for the IC50 at JAK2 and on ALK were below 100 nM and 100 to 1000 nM, respectively.

As to `CN1CCN(c2ccc(Nc3ncc4ccc(-c5ccc(CN6CCS(=O)(=O)CC6)nc5)n4n3)cc2)CC1` [Example 1056, {7-[6-(1,1-Dioxo-1$1(6)-thiomorpholin-4-ylmethyl)-pyridin-3-yl]-pyrrolo[2,1-f][1,2,4]triazin-2-yl}-[4-(4-methyl-piperazin-1-yl)-phenyl]-amine], the results for the IC50 at JAK2 and on ALK were below 100 nM and 100 to 1000 nM, respectively.

With `CC(C)(C)NS(=O)(=O)c1cccc(-c2ccc3cnc(Nc4ccc(CN5CCS(=O)(=O)CC5)cc4)nn23)c1` [Example 1057, N-tert-Butyl-3-{2-[4-(1,1-dioxo-1 $1(6)-thiomorpholin-4-ylmethyl)-phenylamino]-pyrrolo[2,1-f][1,2,4]triazin-7-yl}-benzenesulfonamide], the IC50 on JAK2 was below 100 nM; at ALK it was 100 to 1000 nM.

As to `CC(C)(C)NS(=O)(=O)c1cccc(-c2ccc3cnc(Nc4ccc(C5CCN(C(=O)OC(C)(C)C)CC5)cc4)nn23)c1` [Example 1058, 4-{4-[7-(3-tert-Butylsulfamoyl-phenyl)-pyrrolo[2,1-f][1,2,4]triazin-2-ylamino]-phenyl}-piperidine-1-carboxylic acid tert-butyl ester], the IC50 on JAK2 was below 100 nM; on ALK, above 10000 nM.

Consider `CC(C)(C)NS(=O)(=O)c1cccc(-c2ccc3cnc(Nc4ccc(C5CCNCC5)cc4)nn23)c1` [Example 1059, N-tert-Butyl-3-[2-(4-piperidin-4-yl-phenylamino)-pyrrolo[2,1-f][1,2,4]triazin-7-yl]-benzenesulfonamide], for which the IC50 at JAK2 was below 100 nM; at ALK it was 100 to 1000 nM.

Consider `CC(C)(C)NS(=O)(=O)c1cccc(-c2ccc3cnc(Nc4ccc5c(c4)N(S(C)(=O)=O)CCC5)nn23)c1` [Example 1060, N-tert-Butyl-3-[2-(1-methanesulfonyl-1,2,3,4-tetrahydro-quinolin-7-ylamino)-pyrrolo[2,1-f][1,2,4]triazin-7-yl]-benzenesulfonamide], for which the values for the IC50 on JAK2 and on ALK were below 100 nM and 1000 to 10000 nM, respectively.

With `COc1ccc(-c2ccc3cnc(Nc4ccc5c(c4)N(S(C)(=O)=O)CCC5)nn23)cn1` [Example 1061, (1-Methanesulfonyl-1,2,3,4-tetrahydro-quinolin-7-yl)-[7-(6-methoxy-pyridin-3-yl)-pyrrolo[2,1-f][1,2,4]triazin-2-yl]-amine], the figures for the IC50 on JAK2 and on ALK were below 100 nM and above 10000 nM, respectively.

In the case of `CN(c1ccccc1-c1ccc2cnc(Nc3ccc4c(c3)N(S(C)(=O)=O)CCC4)nn12)S(C)(=O)=O` [Example 1062, N-{2-[2-(1-Methanesulfonyl-1,2,3,4-tetrahydro-quinolin-7-ylamino)-pyrrolo[2,1-f][1,2,4]triazin-7-yl]-phenyl}-N-methyl-methanesulfonamide], the IC50 on JAK2 is below 100 nM; at ALK it was 100 to 1000 nM.

Regarding `NC(=O)CN1CCC(c2ccc(Nc3ncc4ccc(-c5cccc(CO)c5)n4n3)cc2)CC1` [Example 1065, 2-(4-{4-[7-(3-Hydroxymethyl-phenyl)-pyrrolo[2,1-f][1,2,4]triazin-2-ylamino]-phenyl}-piperidin-1-yl)-acetamide], the IC50 was below 100 nM on JAK2 and 100 to 1000 nM at ALK.

Source of the values: patent US8471005B2 (Cephalon, Inc., priority 2008, dated 2013).
